Patent US20080194506A1, “Oligodeoxyribonuleotides of 4000-10000 Dalton for Treating” (Gentium SPA, priority 2005, published 2008)

Key:
[1] = test system: activated p70S6 kinase (p-p70S6); test: Western Blot analyses of activated p70S6 kinase; format: cell-based; settings: preliminary evidence
[2] = test system: serum VEGF; test: Serum VEGF levels in patients after allogeneic stem cell transplantation; format: in vivo, human; settings: cohort of 17 treated patients after allogeneic SCT
[3] = test system: human umbilical vene (HUVEC) endothelial cells; test: Matrigel tube formation assay of HUVEC; format: cell-based; settings: single addition, 10 μg/mL, 7 days, FIG. 1A
Description: (§1) The Matrigel™ assay is one of the most popular and widely used in vitro angiogenesis assays (22). Matrigel™ is a semisolid synthetic mixture of extracellular matrix proteins which simulate the matrix that physiologically exist beneath the endothelial cell wall of a blood vessel. When the cells of question are seeded onto this matrix in microscopic chamber slides, they are activated to form tubular structures in 3-7 days, but only in the case that they have an endothelial phenotype. Therefore, this assay is suitable to show the potential capacity of cells to give rise to a tumor vasculature.
(§2) TuDC-ELC and mature, differentiated endothelial cells, [human umbilical vene (HUVEC) or microvascular endothelial cells (HMEC) as “stable” controls] were incubated in the presence or absence of oligotide or Defibrotide (10 μg/mL each) for 7 days.

[4] = test system: transdifferentiating ELC (TuDC-ELC); test: Matrigel tube formation assay of TuDC-ELC; format: cell-based, human
Text: We have recently developed a model for an alternative pathway of tumor angiogenesis. […] These endothelial-like cells (ELC) can transdifferentiate from tumor-associated dendritic cells under specific culture conditions (11). Briefly, monocytes are elutriated from leukapheresis products of healthy human blood donors and cultured in the presence of granulocyte-macrophage-colony stimulating factor (GM-CSF) and interleukin 4 (IL-4) to stimulate the differentiation of dendritic cells (DC). In addition, cells are treated with a cocktail specifically released by tumor cells (M-CSF, IL.6 and lactate, Gottfried et al., manuscript submitted) to promote the outgrowth of tumor-associated dendritic cells (TuDC).
These TuDC-ELC acquire the phenotype of endothelial cells (FactorVIII related Ag, vWF) while they lose monocytic (CD14) and dendritic cell markers (CD1a). […] In addition, they are able to form tube-like structures in Matrigel™, an in vitro assay of angiogenesis.
The Matrigel™ assay is one of the most popular and widely used in vitro angiogenesis assays (22). […]
By the help of a complimentary software from the NIH (Image J, http://rsb.info.nih.gov/ij/), we are able to quantify these effects, the total length of tubes and the area of the photograph are assessed, the microvascular density (MVD) is then given in total length/area [pix-1].

[5] = test system: microvascular endothelial cells (HMEC); test: Matrigel tube formation assay of HMEC; format: cell-based, human; settings: single addition, 10 μg/mL, 7 days, FIG. 1A
Description: as §1, §2

[6] = test system: rat aorta endothelial cells; test: Aortic ring assay: sprouting of rat aorta endothelial cells in Matrigel; format: cell-based; settings: applied on a daily basis, FIG. 2
[7] = test system: human microvascular endothelial cells; test: In vitro angiogenesis assay: microvascular endothelial cells vascularizing through a layer of dermal fibroblasts; format: cell-based
Description: The aortic ring assay investigates macrovascular endothelial cells. But often, the tumor vasculature consists of microvascular endothelial cells. Therefore, a third in vitro angiogenesis assay was performed on the basis of microvascular endothelial cells vascularizing through a layer of dermal fibroblasts after 9-11 days of culture. These vessel-like structures can subsequently be visualized by staining for CD31 and vWF.

[8] = test system: human gastric carcinoma; test: Dorsal skin chamber assay, human gastric carcinoma mouse model (Xenograft system); format: in vivo; settings: treated vs control tumors; first data
Text: We are currently performing a dorsal skin chamber assay (14) that investigates the effect of defibrotide in a highly vascularized human gastric carcinoma mouse model (Xenograft system). […] This set of experiments will be reproduced in due time.

defibrotide
effect on activated p70S6 kinase (p-p70S6) [1]: downregulating effect | serum VEGF levels [2]: striking decline | tube formation potential of HUVEC [3]: not affected | tube formation of transdifferentiating ELC (TuDC-ELC) in Matrigel ([4]; 10 μg/mL, 7 days, clinical and subclinical concentrations): can inhibit tube formation | microvascular density (MVD) of TuDC-ELC, total length/area ([4]; Image J quantification, p=0.02 TTEST, FIG. 1B): significantly (p=0.02, TTEST) downregulates MVD | tube formation potential of HMEC [5]: not affected | prevention of sprouting of rat aorta endothelial cells in Matrigel [6]: ~100% | angiogenesis of human microvascular endothelial cells ([7]; daily application, 9-11 days of culture, FIGS. 3A and B): can also block angiogenesis | most effective concentration for blocking angiogenesis ([7]; human microvascular endothelial cells, FIGS. 3A and B): around 10 μg/mL | angiogenesis of human microvascular endothelial cells ([7]; single application): could not significantly block angiogenesis | microvascular density (MVD) of tumors [8]: lower than that of control tumors
